Experimental data as given in patent US20040197335A1, “Non-myeloablative tolerogenic treatment with tyrphostins” (priority 2003, published 2004).

How the values were obtained:
[1] = test system: Mice with donor skin graft; assay: Skin grafting after tolerogenic treatment (TLI, donor bone marrow cells, tyrphostin, cyclophosphamide); format: in vivo; design: Survivors after 50 days / Survivors after 50 days (%) / Survivors after 100 days / Survivors after 100 days (%): dose or concentration left out as unconfirmed
[2] = test system: Human PBMC incubated with MHC-mismatched PBMC; assay: One-way mixed lymphocyte reaction (primary MLR), [3H]TdR uptake; format: cell-based; settings: for % response (alloreactive relative response, cpm with/without tyrphostin x100): FIG. 2, response without tyrphostin = 100%; for cpm: no tyrphostin 10,734 cpm
Experimental: Cell sources: Human peripheral blood mononuclear cells (PBMC) were obtained from healthy human donors after separation on Ficoll-Paque density gradient essentially as described in Boyum, A. Scand. J Lab. Invest. […] Reagents:
One-way mixed lymphocyte reaction (MLR assay): Responding cells derived from donor A (5×10^4) were cultured in round-bottom microwell plates with an equal number (5×10^4) of irradiated (6000 cGy) donor B PBMC with and without tyrphostins. […] During the last 18 hours of incubation, cultures were pulsed with 2 μCi of [^3H] TdR.
(§1) Harvesting and radioactivity determination: Harvesting was carried out by a multiple-sample cell harvester and radioactivity, expressed in counts per minutes (cpm), was determined in a liquid scintillation β-counter.
Human PBMC were incubated either with autologous or with MHC-mismatched PBMC in a one-way MLR assay, with and without various concentrations of tyrphostins, as is described hereinabove.
In this case, the alloreactive response without the tyrphostins was considered as 100% response. Percentage of response was calculated according to the following formula: b/a×100; where a=cpm in cultures without tyrphostin, b=cpm in cultures with tyrphostin.

[3] = test system: Human PBMC stimulated with phytohemagglutinin (PHA); assay: Primary mitogenic response assay (PHA), [3H]TdR uptake; format: cell-based; settings: Table 6, tyrphostin 20 μM
Experimental: Mitogens: Phytohemagglutinin (PHA) and concanavalin A (Con-A) were dissolved in saline and diluted to their final concentration in culture medium. Anti-CD3 (OK3 stock solution 1 μg/ml) was diluted to 0.2 μg/ml final concentration in culture medium.
Responding PBMC cells (10^5) derived from donor A were cultured in flat-bottom microwell plates with and without tyrphostins, and with phytohemagglutinin (PHA) 1 μg/ml, or concanavalin A 18 μg/ml. […] During the last 18 hours of incubation, cultures were pulsed with 1 μCi of [^3H] TdR.
as §1

[4] = test system: donor A anti-donor B-primed human PBMC vs donor B PBMC; assay: Secondary MLR of alloantigen-primed PBMC against priming donor B; format: cell-based; settings: then removed, priming without tyrphostin = 100%
Experimental: (§2) PBMC from donor A (10×10^6) were stimulated with equal number of irradiated (6000 cGy) donor B PBMC, with and without tyrphostins, in a total volume of 20 ml culture medium supplemented with 10% heat inactivated human AB^+ serum (mixed lymphocyte culture, MLC). Cultures were placed vertically in 25 cm tissue culture flasks in a 5% CO2, humidified incubator at 37° C. After 10 days, cells were washed twice to remove the tyrphostin, and tested for their ability to respond in the MLR and the primary mitogenic response assay described hereinabove.
(§3) The alloreactivity of donor A anti-donor B-primed cells (5×10^4) was tested in a 6-day one-way primary MLR assay against third party unrelated donor C PBMC (10^5), or against donor A cells (background control). Cultures were placed in round-bottom microwell plates. On day 5, cultures were pulsed with 2 μCi [^3H] TdR/well for 16-18 hours and then harvested. […] After 48 hours at 37° C. in a 5% CO2 humidified incubator, cultures were pulsed with 2 μCi [^3H] TdR for another 16-18 hours and then harvested.
as §1
(§4) […] After 10 days the tyrphostin was removed and the primed cells were tested for their ability to respond in a secondary MLR assay against the priming (donor B) alloantigens, in a primary MLR assay against third party unrelated alloantigens (donor C), and to non-specific stimulation in a mitogenic assay. […] Percentage of response was calculated according to the formula described above.

[5] = test system: donor A anti-donor B-primed human PBMC vs third party unrelated donor C PBMC; assay: Primary MLR of alloantigen-primed PBMC against third party unrelated donor C; format: cell-based; settings: then removed, priming without tyrphostin = 100%
Experimental: as §2, §3, §1, §4

[6] = test system: donor A anti-donor B-primed human PBMC stimulated with PHA; assay: Mitogenic response (PHA) of alloantigen-primed PBMC; format: cell-based; settings: then removed, priming without tyrphostin = 100%
Experimental: as §2
Cultures were incubated for 48 hours in a total volume of 0.2 ml culture medium supplemented with 10% heat-inactivated human AB^+ serum at 37° C. in a 5% CO2 humidified incubator, pulsed for 16-18 hours with 1 μCi [^3H]TdR/well, and then harvested.
as §1, §4

[7] = primed 10 days with tyrphostin 25 μM
[8] = primed 10 days with tyrphostin 50 μM

| Structure (SMILES) | effectiveness of sub-optimal dose by itself ([1]; mouse, in vivo, 100 mg/kg) | % response (alloreactive relative response, cpm with/without tyrphostin x100) ([2]; primary MLR, tyrphostin 10 μM) [%] | % response (alloreactive relative response, cpm with/without tyrphostin x100) ([2]; primary MLR, tyrphostin 50 μM) [%] | inhibition at 25 µM ([2]; Homo sapiens, PBMC, 144 h, Table 2, primary MLR, tyrphostin 25 μM) [%] | inhibition at 50 µM ([2]; Homo sapiens, PBMC, 144 h, Table 2, primary MLR, tyrphostin 50 μM) [%] | IC50 ([2]; Homo sapiens, PBMC, Table 5, some values marked (mean), read-out: IC 50% (inhibition of Primary MLR)) [µM] | cpm ([2]; Table 2, primary MLR, tyrphostin 25 μM) | cpm ([2]; Table 2, primary MLR, tyrphostin 50 μM) | inhibition at 20 µM ([3]; Homo sapiens, PBMC, 96 h, mitogenic response) [%] | cpm ± SD ([3]; PHA without tyrphostin 14,959±644, medium 155±37) | % Response to primary stimulator [4, 7] [%] | % Response to primary stimulator [4, 8] [%] | % Response to unrelated stimulator [5, 7] | % Response to unrelated stimulator [5, 8] [%] | % Response to PHA [6, 7] | % Response to PHA [6, 8] [%] | Survivors after 50 days (%) ([1]; mice, s.c.) | Survivors after 100 days (%) ([1]; mice, s.c.) | Survivors after 50 days ([1]; mice, s.c., survivors/total) | Survivors after 100 days ([1]; mice, s.c., survivors/total) |
| --- | --- | --- | --- | --- | --- | --- | --- | --- | --- | --- | --- | --- | --- | --- | --- | --- | --- | --- | --- | --- |
| O=P1(N(CCCl)CCCl)NCCCO1 (centres unmarked) [cyclophosphamide, reference compound] | ineffective | – | – | – | – | – | – | – | – | – | – | – | – | – | – | – | – | – | – | – |
| N#CC(=Cc1ccc(O)c(O)c1)C(=O)NCc1ccccc1 [Tyr 1, N-benzyl-2-cyano-3-(3,4-dihydroxyphenyl)-acrylamide] | – | 40 | 4 | 77 | 89 | 45 | 2,420 cpm | 1,132 cpm | 60 | 6,023 ± 876 cpm | 22 ± 14 | 19 ± 10 | 99 ± 29^ % | 175 ± 77 | 290 ± 111^ % | 176 ± 50 | (20%) | (20%) | 1/5 | 1/5 |
